#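 Compound exposure: 48 hours, 5 concentrations, 96-well plates. Here, GI50 denotes the concentration required for 50% inhibition of growth. Definition used: TGI = concentration required for complete inhibition of growth.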
# Columns and labels:
# Assay in all cases: NCI anticancer screen, dose series, 48 h
# [1] = system: 786-0 renal
# [2] = system: A498 renal
# [3] = system: A549 NSCLC
# [4] = system: ACHN renal
# [5] = system: BT-549 breast
# [6] = system: CAKI-1 renal
# [7] = system: COLO 205 colon
# [8] = system: DU-145 prostate
# [9] = system: EKVX NSCLC
# [10] = system: HCC-2998 colon
# [11] = system: HCT-116 colon
# [12] = system: HCT-15 colon
# [13] = system: HL-60(TB) leukemia
# [14] = system: HOP-62 NSCLC
# [15] = system: HOP-92 NSCLC
# [16] = system: HS 578T breast
# [17] = system: HT29 colon
# [18] = system: IGROV1 ovarian
# [19] = system: K-562 leukemia
# [20] = system: KM12 colon
# [21] = system: LOX IMVI melanoma
# [22] = system: M14 melanoma
# [23] = system: MALME-3M melanoma
# [24] = system: MCF7 breast
# [25] = system: MDA-MB-231 breast
# [26] = system: MDA-MB-435
# [27] = system: MOLT-4 leukemia
# [28] = system: NCI-H226 lung
# [29] = system: NCI-H460 lung
# [30] = system: NCI-H522 lung
# [31] = system: NCI/ADR-RES ovarian
# [32] = system: OVCAR-3 ovarian
# [33] = system: OVCAR-4 ovarian
# [34] = system: OVCAR-5 ovarian
# [35] = system: OVCAR-8 ovarian
# [36] = system: PC-3 prostate
# [37] = system: RXF 393 renal
# [38] = system: SF-268 CNS
# [39] = system: SF-295 CNS
# [40] = system: SF-539 CNS
# [41] = system: SK-MEL-2 melanoma
# [42] = system: SK-MEL-28 melanoma
# [43] = system: SK-MEL-5 melanoma
# [44] = system: SK-OV-3 ovarian
# [45] = system: SN12C renal
# [46] = system: SNB-19 CNS
# [47] = system: SNB-75 CNS
# [48] = system: SR leukemia
# [49] = system: SW-620 colon
# [50] = system: T-47D breast
# [51] = system: TK-10 renal
# [52] = system: U251 CNS
# [53] = system: UACC-257 melanoma
# [54] = system: UACC-62 melanoma
# [55] = system: UO-31 renal
compound,measurement,setting,value
Cc1cc2nc3c4cc(Cl)ccc4n(CC(=O)NCCN(C)C)c3nc2cc1C,GI50,[1],1.57 µM
same,TGI,[1],3.1 µM
same,GI50,[2],18 µM
same,TGI,[2],31.8 µM
same,GI50,[3],2.02 µM
same,TGI,[3],5.02 µM
same,GI50,[4],1.5 µM
same,TGI,[4],2.82 µM
same,GI50,[5],13.6 µM
same,TGI,[5],26.8 µM
same,GI50,[6],3.46 µM
same,TGI,[6],18.1 µM
same,GI50,[7],75.6 µM
same,TGI,[7],> 100 µM
same,GI50,[8],13.7 µM
same,TGI,[8],26.6 µM
same,GI50,[9],10.6 µM
same,TGI,[9],23.3 µM
same,GI50,[10],11.7 µM
same,TGI,[10],23.9 µM
same,GI50,[11],1.73 µM
same,TGI,[11],3.29 µM
same,GI50,[12],1.86 µM
same,TGI,[12],4.01 µM
same,GI50,[13],1.91 µM
same,TGI,[13],4.57 µM
same,GI50,[14],11.5 µM
same,TGI,[14],26.4 µM
same,GI50,[15],2.2 µM
same,TGI,[15],22.8 µM
same,GI50,[16],13.5 µM
same,TGI,[16],35.5 µM
same,GI50,[17],1.67 µM
same,TGI,[17],3.18 µM
same,GI50,[18],12.7 µM
same,TGI,[18],26.5 µM
same,GI50,[19],2.28 µM
same,TGI,[19],7.36 µM
same,GI50,[20],> 100 µM
same,TGI,[20],> 100 µM
same,GI50,[21],1.19 µM
same,TGI,[21],2.49 µM
same,GI50,[22],1.64 µM
same,TGI,[22],3.11 µM
same,GI50,[23],1.69 µM
same,TGI,[23],3.2 µM
same,GI50,[24],1.48 µM
same,TGI,[24],3.15 µM
same,GI50,[25],2.25 µM
same,TGI,[25],6.58 µM
same,GI50,[26],1.9 µM
same,TGI,[26],3.77 µM
same,GI50,[27],2.2 µM
same,TGI,[27],6.18 µM
same,GI50,[28],9.43 µM
same,TGI,[28],26.1 µM
same,GI50,[29],1.79 µM
same,TGI,[29],3.62 µM
same,GI50,[30],12.7 µM
same,TGI,[30],25.9 µM
same,GI50,[31],5.64 µM
same,TGI,[31],18.5 µM
same,GI50,[32],14.6 µM
same,TGI,[32],27.8 µM
same,GI50,[33],15.9 µM
same,TGI,[33],39.2 µM
same,GI50,[34],2.04 µM
same,TGI,[34],4.68 µM
same,GI50,[35],1.91 µM
same,TGI,[35],3.87 µM
same,GI50,[36],11.1 µM
same,TGI,[36],71.7 µM
same,GI50,[37],1.67 µM
same,TGI,[37],3.42 µM
same,GI50,[38],13.9 µM
same,TGI,[38],30.5 µM
same,GI50,[39],16.4 µM
same,TGI,[39],29.9 µM
same,GI50,[40],1.74 µM
same,TGI,[40],3.21 µM
same,GI50,[41],16 µM
same,TGI,[41],29.8 µM
same,GI50,[42],1.74 µM
same,TGI,[42],3.15 µM
same,GI50,[43],1.77 µM
same,TGI,[43],3.37 µM
same,GI50,[44],14.3 µM
same,TGI,[44],29.1 µM
same,GI50,[45],15.2 µM
same,TGI,[45],29.4 µM
same,GI50,[46],16.1 µM
same,TGI,[46],31.2 µM
same,GI50,[47],13.2 µM
same,TGI,[47],26.5 µM
same,GI50,[48],2.42 µM
same,TGI,[48],6.64 µM
same,GI50,[49],1.57 µM
same,TGI,[49],3.21 µM
same,GI50,[50],> 100 µM
same,TGI,[50],> 100 µM
same,GI50,[51],19.7 µM
same,TGI,[51],33.9 µM
same,GI50,[52],1.66 µM
same,TGI,[52],3.1 µM
same,GI50,[53],1.87 µM
same,TGI,[53],3.97 µM
same,GI50,[54],2.14 µM
same,TGI,[54],5.26 µM
same,GI50,[55],1.02 µM
same,TGI,[55],2.22 µM
